According to patent US9708314B2, “Heterocyclic amide compound” (NISSAN CHEMICAL INDUSTRIES, LTD., priority 2013, dated 2017):

Experiments:
Assay type in all cases: in vivo
[1] = system: Echinochloa oryzacola Vasing.; assay: Test Example 2: herbicidal activity, application during weed generation in submerged conditions; conditions: Eighteenth Table; application herbicide amount 320 g/ha
Summary of the method: (§1)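 Alluvial soil in Wagner pots flooded to 4 cm water depth; seeds sown mixed, grown in greenhouse at 25–30 °C. At one- to two-leaf stage, emulsion diluted with water to the set rate (g/ha) was applied to the water surface. Effect scored 0–5 by herbicidal ratio three weeks later.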

[2] = system: Monochoria vaginalis; assay: as above; conditions: Eighteenth Table; application herbicide amount 320 g/ha
Summary of the method: as §1

[3] = system: Scirpus juncoides; assay: as above; conditions: Eighteenth Table; application herbicide amount 320 g/ha
Summary of the method: as §1

[4] = system: Abutilon theophrasti; assay: Test Example 4: herbicidal effect by application to foliage (diluvial soil, plastic box); conditions: foliage application, 320 g/ha
Summary of the method: (§2)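 Scores run from 0 (herbicidal ratio ≤5%) to 5 (≥90%, almost fully withered) and were assessed three weeks after foliar spraying. Seedlings had been raised for 14 days at 25-30° C in sterilized diluvial soil before treatment, with the emulsion diluted in water to the stated g/ha dose.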

[5] = system: Alopecurus myosuroides; assay: as above; conditions: foliage application, 320 g/ha
Summary of the method: as §2

[6] = system: Amaranthus retroflexus; assay: as above; conditions: foliage application, 320 g/ha
Summary of the method: as §2

[7] = system: Apera spica-venti.; assay: as above; conditions: foliage application, 320 g/ha
Summary of the method: as §2

[8] = system: Avena fatua; assay: as above; conditions: foliage application, 320 g/ha
Summary of the method: as §2

[9] = system: Chenopodium album; assay: as above; conditions: foliage application, 320 g/ha
Summary of the method: as §2

[10] = system: Digitaria ciliaris; assay: as above; conditions: foliage application, 320 g/ha
Summary of the method: as §2

[11] = system: Echinochloa crus-galli var. crus-galli; assay: as above; conditions: foliage application, 320 g/ha
Summary of the method: as §2

[12] = system: Galium spurium; assay: as above; conditions: foliage application, 320 g/ha
Summary of the method: as §2

[13] = system: Lolium multiflorum Lam.; assay: as above; conditions: foliage application, 320 g/ha
Summary of the method: as §2

[14] = system: Setaria viridis; assay: as above; conditions: foliage application, 320 g/ha
Summary of the method: as §2

[15] = system: Stellaria media; assay: as above; conditions: foliage application, 320 g/ha
Summary of the method: as §2

[16] = system: Beta vulgaris ssp. vulgaris; assay: Test Example 4: effect on crop by application to foliage (diluvial soil, plastic box); conditions: foliage application, 320 g/ha
Summary of the method: as §2

[17] = system: Brassica campestris L.; assay: as above; conditions: foliage application, 320 g/ha
Summary of the method: as §2

[18] = system: Glycine max; assay: as above; conditions: foliage application, 320 g/ha
Summary of the method: as §2

[19] = system: Triticum aestivum; assay: as above; conditions: foliage application, 320 g/ha
Summary of the method: as §2

[20] = system: Zea mays; assay: as above; conditions: foliage application, 320 g/ha
Summary of the method: as §2

[21] = system: directly sowed Oryza sativa; assay: as above; conditions: foliage application, 320 g/ha
Summary of the method: as §2

SMILES	A (Echinochloa oryzicola Vasing.) herbicidal ratio grade [1]	C (Monochoria vaginalis) herbicidal ratio grade [2]	B (Scirpus juncoides) herbicidal ratio grade [3]	M (Abutilon theophrasti) herbicidal effect grade [4]	J (Alopecurus myosuroides) herbicidal effect grade [5]	N (Amaranthus retroflexus) herbicidal effect grade [6]	L (Apera spica-venti.) herbicidal effect grade [7]	I (Avena fatua) herbicidal effect grade [8]	O (Chenopodium album) herbicidal effect grade [9]	F (Digitaria ciliaris) herbicidal effect grade [10]	H (Echinochloa crus-galli var. crus-galli) herbicidal effect grade [11]	K (Lolium multiflorum Lam.) herbicidal effect grade [13]	G (Setaria viridis) herbicidal effect grade [14]	P (Stellaria media) herbicidal effect grade [15]	f (Beta vulgaris ssp. vulgaris) effect on crop grade [16]	g (Brassica campestris L.) effect on crop grade [17]	c (Glycine max) effect on crop grade [18]	e (Triticum aestivum) effect on crop grade [19]	b (Zea mays) effect on crop grade [20]	d (directly sowed Oryza sativa) effect on crop grade [21]	other results
CSCCn1nnnc1NC(=O)c1ccc(C(F)(F)F)n2c(C(C)C)nnc12 [2-048]	3 (Herbicidal ratio of 40% or more and less than 70%)	3 (Herbicidal ratio of 40% or more and less than 70%)	4 (Herbicidal ratio of 70% or more and less than 90%)	5 (Herbicidal ratio of 90% or more (almost completely withered))	3 (Herbicidal ratio of 40% or more and less than 70%)	5 (Herbicidal ratio of 90% or more (almost completely withered))	4 (Herbicidal ratio of 70% or more and less than 90%)	4 (Herbicidal ratio of 70% or more and less than 90%)	5 (Herbicidal ratio of 90% or more (almost completely withered))	5 (Herbicidal ratio of 90% or more (almost completely withered))	5 (Herbicidal ratio of 90% or more (almost completely withered))	4 (Herbicidal ratio of 70% or more and less than 90%)	5 (Herbicidal ratio of 90% or more (almost completely withered))	4 (Herbicidal ratio of 70% or more and less than 90%)	5 (Herbicidal ratio of 90% or more (almost completely withered))	5 (Herbicidal ratio of 90% or more (almost completely withered))	4 (Herbicidal ratio of 70% or more and less than 90%)	4 (Herbicidal ratio of 70% or more and less than 90%)	4 (Herbicidal ratio of 70% or more and less than 90%)	5 (Herbicidal ratio of 90% or more (almost completely withered))	Q (Galium spurium) herbicidal effect grade [12]: 4 (Herbicidal ratio of 70% or more and less than 90%)
CSC(C)c1nnc2c(C(=O)Nc3nnnn3C)ccc(C(F)(F)F)n12 (centres unmarked) [2-052]	5 (Herbicidal ratio of 90% or more (almost completely withered))	4 (Herbicidal ratio of 70% or more and less than 90%)	4 (Herbicidal ratio of 70% or more and less than 90%)	5 (Herbicidal ratio of 90% or more (almost completely withered))	5 (Herbicidal ratio of 90% or more (almost completely withered))	5 (Herbicidal ratio of 90% or more (almost completely withered))	5 (Herbicidal ratio of 90% or more (almost completely withered))	5 (Herbicidal ratio of 90% or more (almost completely withered))	5 (Herbicidal ratio of 90% or more (almost completely withered))	5 (Herbicidal ratio of 90% or more (almost completely withered))	5 (Herbicidal ratio of 90% or more (almost completely withered))	5 (Herbicidal ratio of 90% or more (almost completely withered))	5 (Herbicidal ratio of 90% or more (almost completely withered))	5 (Herbicidal ratio of 90% or more (almost completely withered))	5 (Herbicidal ratio of 90% or more (almost completely withered))	5 (Herbicidal ratio of 90% or more (almost completely withered))	4 (Herbicidal ratio of 70% or more and less than 90%)	5 (Herbicidal ratio of 90% or more (almost completely withered))	5 (Herbicidal ratio of 90% or more (almost completely withered))	5 (Herbicidal ratio of 90% or more (almost completely withered))	
CC(c1nnc2c(C(=O)Nc3nnnn3C)ccc(C(F)(F)F)n12)[S+](C)[O-] (centres unmarked) [2-053]	5 (Herbicidal ratio of 90% or more (almost completely withered))	4 (Herbicidal ratio of 70% or more and less than 90%)	4 (Herbicidal ratio of 70% or more and less than 90%)	5 (Herbicidal ratio of 90% or more (almost completely withered))	5 (Herbicidal ratio of 90% or more (almost completely withered))	5 (Herbicidal ratio of 90% or more (almost completely withered))	5 (Herbicidal ratio of 90% or more (almost completely withered))	5 (Herbicidal ratio of 90% or more (almost completely withered))	5 (Herbicidal ratio of 90% or more (almost completely withered))	5 (Herbicidal ratio of 90% or more (almost completely withered))	5 (Herbicidal ratio of 90% or more (almost completely withered))	4 (Herbicidal ratio of 70% or more and less than 90%)	5 (Herbicidal ratio of 90% or more (almost completely withered))	5 (Herbicidal ratio of 90% or more (almost completely withered))	5 (Herbicidal ratio of 90% or more (almost completely withered))	5 (Herbicidal ratio of 90% or more (almost completely withered))	4 (Herbicidal ratio of 70% or more and less than 90%)	5 (Herbicidal ratio of 90% or more (almost completely withered))	5 (Herbicidal ratio of 90% or more (almost completely withered))	5 (Herbicidal ratio of 90% or more (almost completely withered))	Q (Galium spurium) herbicidal effect grade [12]: 5 (Herbicidal ratio of 90% or more (almost completely withered))
CC(c1nnc2c(C(=O)Nc3nnnn3C)ccc(C(F)(F)F)n12)S(C)(=O)=O (centres unmarked) [2-054]	5 (Herbicidal ratio of 90% or more (almost completely withered))	5 (Herbicidal ratio of 90% or more (almost completely withered))	4 (Herbicidal ratio of 70% or more and less than 90%)	5 (Herbicidal ratio of 90% or more (almost completely withered))	4 (Herbicidal ratio of 70% or more and less than 90%)	5 (Herbicidal ratio of 90% or more (almost completely withered))	5 (Herbicidal ratio of 90% or more (almost completely withered))	5 (Herbicidal ratio of 90% or more (almost completely withered))	5 (Herbicidal ratio of 90% or more (almost completely withered))	5 (Herbicidal ratio of 90% or more (almost completely withered))	5 (Herbicidal ratio of 90% or more (almost completely withered))	5 (Herbicidal ratio of 90% or more (almost completely withered))	5 (Herbicidal ratio of 90% or more (almost completely withered))	5 (Herbicidal ratio of 90% or more (almost completely withered))	5 (Herbicidal ratio of 90% or more (almost completely withered))	5 (Herbicidal ratio of 90% or more (almost completely withered))	5 (Herbicidal ratio of 90% or more (almost completely withered))	5 (Herbicidal ratio of 90% or more (almost completely withered))	5 (Herbicidal ratio of 90% or more (almost completely withered))	5 (Herbicidal ratio of 90% or more (almost completely withered))	Q (Galium spurium) herbicidal effect grade [12]: 4 (Herbicidal ratio of 70% or more and less than 90%)
